Laboratory results from US20030129629A1, “Methods and compositions for the identification, assessment, prevention, and therapy of human cancers” (Millennium Pharmaceuticals, Inc., priority 2000, published 2003).
Read-outs that look alike come from different tables or passages of the source.

Legend:
[1] = tested on: 60 cancer cell lines (NCI 60 cancer cell line series); details: cited from earlier work
[2] = tested on: 60 cancer cell lines (NCI 60 cancer cell line series); test: NCI-DTP in vitro cancer screen, sulforhodamine B (SRB) growth inhibition, 48 hour exposure; type: cell-based, human
How it was run: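 NCI-DTP panel of 60 cancer cell lines plated day 0 at line-specific densities, exposed from day 1 to compound at 5 ten-fold-spaced doses in duplicate wells. After 48 h, cell mass stained with sulforhodamine B; −log GI50 derived from dose–response curves, averaged, and classed Low, Medium or High sensitivity.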

COc1cc([C@@H]2c3cc4c(cc3[C@@H](O[C@@H]3O[C@@H]5CO[C@@H](c6cccs6)O[C@H]5[C@H](O)[C@H]3O)[C@H]3COC(=O)[C@H]23)OCO4)cc(OC)c1O [Teniposide]
3: classification of cell line as Low(1), Medium(2), High(3) sensitivity to compound ([2]; Breast MCF7(I) CL5001) | classification of cell line as Low(1), Medium(2), High(3) sensitivity to compound ([2]; Leukemia CCRF-CEM(I) CL7003) | classification of cell line as Low(1), Medium(2), High(3) sensitivity to compound ([2]; Leukemia HL-60(I) CL7008) | classification of cell line as Low(1), Medium(2), High(3) sensitivity to compound ([2]; Leukemia MOLT-4 CL7006) | classification of cell line as Low(1), Medium(2), High(3) sensitivity to compound ([2]; Leukemia SR CL7019) | sensitivity classification Low(1)/Medium(2)/High(3) ([2]; NSCLC NCI-H460 CL1021) | sensitivity classification Low(1)/Medium(2)/High(3) ([2]; Renal CAKI-1 CL9015)
6.5: −Log (GI50) ([1]; NSCLC NCI-H226 CL1013)
6.0: −Log (GI50) ([1]; Melanoma SK-MEL-2 CL10005)
2: classification of cell line as Low(1), Medium(2), High(3) sensitivity to compound ([2]; Breast BT-549 CL5013) | classification of cell line as Low(1), Medium(2), High(3) sensitivity to compound ([2]; Breast HS-578T CL5006) | classification of cell line as Low(1), Medium(2), High(3) sensitivity to compound ([2]; Breast MDA-MB-231 CL5005) | classification of cell line as Low(1), Medium(2), High(3) sensitivity to compound ([2]; Breast MDA-MB-435 CL5011) | classification of cell line as Low(1), Medium(2), High(3) sensitivity to compound ([2]; Breast MDA-N CL5012) | classification of cell line as Low(1), Medium(2), High(3) sensitivity to compound ([2]; Breast T-47D CL5014) | classification of cell line as Low(1), Medium(2), High(3) sensitivity to compound ([2]; CNS SF-268 CL12014) | classification of cell line as Low(1), Medium(2), High(3) sensitivity to compound ([2]; CNS SF-295 CL12015) | classification of cell line as Low(1), Medium(2), High(3) sensitivity to compound ([2]; CNS SF-539 CL12016) | classification of cell line as Low(1), Medium(2), High(3) sensitivity to compound ([2]; CNS SNB-19 CL12002) | classification of cell line as Low(1), Medium(2), High(3) sensitivity to compound ([2]; CNS SNB-75(I) CL12005) | classification of cell line as Low(1), Medium(2), High(3) sensitivity to compound ([2]; CNS U251(I) CL12009) | classification of cell line as Low(1), Medium(2), High(3) sensitivity to compound ([2]; Colon COLO-250 CL4010) | classification of cell line as Low(1), Medium(2), High(3) sensitivity to compound ([2]; Colon HCC-2998 CL4002) | classification of cell line as Low(1), Medium(2), High(3) sensitivity to compound ([2]; Colon HCT-15 CL4015) | classification of cell line as Low(1), Medium(2), High(3) sensitivity to compound ([2]; Colon HCT-116 CL4003) | classification of cell line as Low(1), Medium(2), High(3) sensitivity to compound ([2]; Colon HT29(I) CL4001) | classification of cell line as Low(1), Medium(2), High(3) sensitivity to compound ([2]; Colon KM12 CL4017) | classification of cell line as Low(1), Medium(2), High(3) sensitivity to compound ([2]; Colon SW-620 CL4009) | classification of cell line as Low(1), Medium(2), High(3) sensitivity to compound ([2]; Leukemia K562(I) CL7005) | classification of cell line as Low(1), Medium(2), High(3) sensitivity to compound ([2]; Leukemia RPMI-8226(I) CL7010) | classification of cell line as Low(1), Medium(2), High(3) sensitivity to compound ([2]; Melanoma LOX IMVI CL10001) | classification of cell line as Low(1), Medium(2), High(3) sensitivity to compound ([2]; Melanoma M14 CL10014) | classification of cell line as Low(1), Medium(2), High(3) sensitivity to compound ([2]; Melanoma MALME-3M CL10002) | classification of cell line as Low(1), Medium(2), High(3) sensitivity to compound ([2]; Melanoma SK-MEL-2 CL10005) | classification of cell line as Low(1), Medium(2), High(3) sensitivity to compound ([2]; Melanoma SK-MEL-28 CL10008) | sensitivity classification Low(1)/Medium(2)/High(3) ([2]; NSCLC NCI-H23(I) CL1001) | sensitivity classification Low(1)/Medium(2)/High(3) ([2]; NSCLC NCI-H522 CL1003) | sensitivity classification Low(1)/Medium(2)/High(3) ([2]; Ovarian IGROV1 CL6010) | sensitivity classification Low(1)/Medium(2)/High(3) ([2]; Ovarian OVCAR-3 CL6001) | sensitivity classification Low(1)/Medium(2)/High(3) ([2]; Ovarian OVCAR-5 CL6003) | sensitivity classification Low(1)/Medium(2)/High(3) ([2]; Ovarian OVCAR-8 CL6005) | sensitivity classification Low(1)/Medium(2)/High(3) ([2]; Ovarian SK-OV-3 CL6011) | sensitivity classification Low(1)/Medium(2)/High(3) ([2]; Prostate DU-145 CL11003) | sensitivity classification Low(1)/Medium(2)/High(3) ([2]; Prostate PC-3(I) CL11001) | sensitivity classification Low(1)/Medium(2)/High(3) ([2]; Renal 786-0 CL9018) | sensitivity classification Low(1)/Medium(2)/High(3) ([2]; Renal A498 CL9013) | sensitivity classification Low(1)/Medium(2)/High(3) ([2]; Renal ACHN CL9023) | sensitivity classification Low(1)/Medium(2)/High(3) ([2]; Renal RXF-393 CL9016) | sensitivity classification Low(1)/Medium(2)/High(3) ([2]; Renal SN12C CL9008) | sensitivity classification Low(1)/Medium(2)/High(3) ([2]; Renal TK10 CL9024)
1: classification of cell line as Low(1), Medium(2), High(3) sensitivity to compound ([2]; Breast MCF7/ADRr CL5002) | sensitivity classification Low(1)/Medium(2)/High(3) ([2]; NSCLC NCI-H332M CL1017) | sensitivity classification Low(1)/Medium(2)/High(3) ([2]; Ovarian OVCAR-4 CL6002) | sensitivity classification Low(1)/Medium(2)/High(3) ([2]; Renal UO-31 CL9004)
5.8: −Log (GI50) ([1]; Melanoma SK-MEL-28 CL10008)

N.N.[Cl][Pt][Cl] [cisplatin, cis-Diamminedichloroplatinum (II), reference compound]
1: classification of cell line as Low(1), Medium(2), High(3) sensitivity to compound ([2]; Breast MDA-MB-231 CL5005) | classification of cell line as Low(1), Medium(2), High(3) sensitivity to compound ([2]; Breast T-47D CL5014) | classification of cell line as Low(1), Medium(2), High(3) sensitivity to compound ([2]; Colon COLO-250 CL4010) | classification of cell line as Low(1), Medium(2), High(3) sensitivity to compound ([2]; Colon HCT-15 CL4015) | classification of cell line as Low(1), Medium(2), High(3) sensitivity to compound ([2]; Colon HT29(I) CL4001) | sensitivity classification Low(1)/Medium(2)/High(3) ([2]; Renal A498 CL9013)
5.2: −Log (GI50) ([1]; Ovarian SK-OV-3 CL6011)
2: classification of cell line as Low(1), Medium(2), High(3) sensitivity to compound ([2]; Breast BT-549 CL5013) | classification of cell line as Low(1), Medium(2), High(3) sensitivity to compound ([2]; Breast HS-578T CL5006) | classification of cell line as Low(1), Medium(2), High(3) sensitivity to compound ([2]; Breast MCF7/ADRr CL5002) | classification of cell line as Low(1), Medium(2), High(3) sensitivity to compound ([2]; Breast MDA-N CL5012) | classification of cell line as Low(1), Medium(2), High(3) sensitivity to compound ([2]; CNS SF-539 CL12016) | classification of cell line as Low(1), Medium(2), High(3) sensitivity to compound ([2]; CNS SNB-75(I) CL12005) | classification of cell line as Low(1), Medium(2), High(3) sensitivity to compound ([2]; CNS U251(I) CL12009) | classification of cell line as Low(1), Medium(2), High(3) sensitivity to compound ([2]; Colon HCC-2998 CL4002) | classification of cell line as Low(1), Medium(2), High(3) sensitivity to compound ([2]; Colon SW-620 CL4009) | classification of cell line as Low(1), Medium(2), High(3) sensitivity to compound ([2]; Leukemia K562(I) CL7005) | classification of cell line as Low(1), Medium(2), High(3) sensitivity to compound ([2]; Leukemia RPMI-8226(I) CL7010) | classification of cell line as Low(1), Medium(2), High(3) sensitivity to compound ([2]; Melanoma M14 CL10014) | classification of cell line as Low(1), Medium(2), High(3) sensitivity to compound ([2]; Melanoma SK-MEL-28 CL10008) | sensitivity classification Low(1)/Medium(2)/High(3) ([2]; NSCLC NCI-H522 CL1003) | sensitivity classification Low(1)/Medium(2)/High(3) ([2]; Ovarian IGROV1 CL6010) | sensitivity classification Low(1)/Medium(2)/High(3) ([2]; Ovarian OVCAR-4 CL6002) | sensitivity classification Low(1)/Medium(2)/High(3) ([2]; Ovarian OVCAR-5 CL6003) | sensitivity classification Low(1)/Medium(2)/High(3) ([2]; Ovarian OVCAR-8 CL6005) | sensitivity classification Low(1)/Medium(2)/High(3) ([2]; Prostate DU-145 CL11003) | sensitivity classification Low(1)/Medium(2)/High(3) ([2]; Renal RXF-393 CL9016) | sensitivity classification Low(1)/Medium(2)/High(3) ([2]; Renal UO-31 CL9004)
5.5: −Log (GI50) ([1]; Breast MCF7(I) CL5001)
3: classification of cell line as Low(1), Medium(2), High(3) sensitivity to compound ([2]; CNS SF-268 CL12014) | classification of cell line as Low(1), Medium(2), High(3) sensitivity to compound ([2]; Leukemia HL-60(I) CL7008) | classification of cell line as Low(1), Medium(2), High(3) sensitivity to compound ([2]; Melanoma LOX IMVI CL10001) | sensitivity classification Low(1)/Medium(2)/High(3) ([2]; NSCLC NCI-H23(I) CL1001) | sensitivity classification Low(1)/Medium(2)/High(3) ([2]; NSCLC NCI-H460 CL1021)
